Results from ChEMBL document CHEMBL4033749, “Synthesis and biological evaluation of 5-fatty-acylamido-1, 3, 4-thiadiazole-2-thioglycosides” (Bioorg Med Chem Lett, 2017).

How the values were obtained:
Klebsiella pneumoniae = assay: Antibacterial activity Klebsiella pneumoniae MTCC 618 by agar well method; assay type: functional
MDA-MB-231 = assay: Cytotoxicity against human MDA-MB-231 cells incubated for 24 hrs by MTT asasy; assay type: functional, cell-based; conditions: Homo sapiens, MDA-MB-231, 24 h; read-out: IC50
CHO-K1 = assay: Cytotoxicity against CHOK1 cells incubated for 24 hrs by MTT asasy; assay type: cell-based, Cricetulus griseus; conditions: cho-k1
[1] = test system: Staphylococcus epidermidis; assay: Antibacterial activity Staphylococcus epidermidis MTCC 9041 by agar well method; assay type: functional
Escherichia coli = assay: Antibacterial activity Escherichia coli MTCC 443 by agar well method; assay type: functional
DU-145 = assay: Cytotoxicity against human DU145 cells incubated for 24 hrs by MTT asasy; assay type: functional, cell-based; conditions: du-145
HeLa = assay: Cytotoxicity against human HeLa cells incubated for 24 hrs by MTT asasy; assay type: functional, cell-based; conditions: Homo sapiens, HeLa, 24 h; read-out: IC50
Staphylococcus aureus = assay: Antibacterial activity Staphylococcus aureus MTCC 96 by agar well method; assay type: functional
Bacillus subtilis = assay: Antibacterial activity Bacillus subtilis MTCC 441 by agar well method; assay type: functional
SK-OV-3 = assay: Cytotoxicity against human SKOV3 cells incubated for 24 hrs by MTT asasy; assay type: functional, cell-based; conditions: sk-ov-3
Pseudomonas aeruginosa = assay: Antibacterial activity Pseudomonas aeruginosa MTCC 1688 by agar well method; assay type: functional

Compound: CCCCCCCCCCCCCCCC(=O)Nc1nnc(S[C@@H]2O[C@H](CO)[C@H](O)[C@H](O)[C@H]2O)s1
- MIC (Klebsiella pneumoniae): > 150 µg/mL
- IC50 (MDA-MB-231): 62.3 µM
- IC50 (CHO-K1): Not Active
- MIC [1]: > 150 µg/mL
- MIC (Escherichia coli): > 150 µg/mL
- IC50 (DU-145): Not Active
- IC50 (HeLa): 14.2 µM
- MIC (Staphylococcus aureus): > 150 µg/mL
- MIC (Bacillus subtilis): > 150 µg/mL
- IC50 (SK-OV-3): Not Active
- MIC (Pseudomonas aeruginosa): > 150 µg/mL
